PMC12892976, “Alkylation-based optimization of antifungal FPPS inhibitors yields a potent, broad-spectrum lipophilic zoledronate derivative” (mBio, 2025)
Converted amounts (≈) assume the structure as drawn.

Tests used:
C. neoformans [1] = assay: ergosterol quantitation; type: cell-based, Cryptococcus neoformans; conditions: 1× MIC vs no-drug control
Method: (§1) Treated cultures were incubated at 30°C with shaking for 18 h for C. albicans and A. fumigatus and for 32 h for C. neoformans. Cell membrane ergosterol was then extracted and quantified as described previously ([48]).

A. fumigatus [2] = assay: ergosterol quantitation; type: cell-based, Aspergillus fumigatus; conditions: 1× MIC vs no-drug control
Method: as §1

C. albicans [3] = assay: membrane permeabilization, nucleic acid leakage; type: cell-based, Candida albicans
Method: (§2) Membrane permeabilization was determined by measuring the leakage of nucleic acid into the supernatant ([19]). […] Suspensions were incubated at 30°C with shaking at 200 rpm for 6 h, then passed through a 0.45 µm syringe filter. The A260 of each filtrate was measured with a DS-11 FX +benchtop spectrophotometer (DeNovix).

C. albicans [4] = assay: membrane depolarization, diS-C3(3); type: cell-based, Candida albicans; conditions: diS-C3(3) emission maximum
Method: (§3) Membrane depolarization was determined using potential-sensitive fluorophore diS-C3(3) (Sigma), as described previously ([51]). Yeast cells and A. fumigatus conidia were treated as described above, then washed with citrate phosphate buffer and labeled with 20 nM diS-C3(3) at a final concentration of 10^6 cells/mL for yeasts and 10^4 conidia/mL for Aspergillus. Cells were transferred to a microplate (Invitrogen), then emission spectra between 560 and 585 nm (λexcitation = 531 nm) were obtained every 12 min for 1 h using a CLARIOstar plate reader (BMG Labtech). The emission λmax was determined at each timepoint.

C. albicans [5] = assay: ergosterol quantitation; type: cell-based, Candida albicans; conditions: 1× MIC vs no-drug control
Method: as §1

C. albicans [6] = assay: membrane fluidity, TMA-DPH anisotropy; type: cell-based, Candida albicans
Method: (§4) Candida albicans cells were incubated for 6 h, and C. neoformans cells were incubated for 9 h at 30°C, washed, then labeled with 2 µM TMA-DPH in PBS for 10 min. […] Mycelia were fixed, and protoplasts were prepared as described previously ([50]). Protoplasts were washed twice and labeled with 2 µM TMA-DPH in PBS for 30 min. For all labeled cultures, parallel and perpendicular fluorescence intensities were measured at 440 nm in a CLARIOstar plate reader (BMG Labtech), and anisotropy was calculated.

C. neoformans [7] = assay: membrane fluidity, TMA-DPH anisotropy; type: cell-based, Cryptococcus neoformans
Method: as §4

C. neoformans [8] = assay: lipid peroxidation, TBARS assay (MDA); type: cell-based, Cryptococcus neoformans
Method: (§5) Cultures were incubated overnight, pelleted, and resuspended in 1 mL ice-cold PBS. Malondialdehyde (MDA) was extracted and quantified using a TBARS assay kit (Cayman Chemical #700870) according to the manufacturer’s instructions. MDA was normalized to total protein content in cell lysates.

C. neoformans [9] = assay: membrane permeabilization, nucleic acid leakage; type: cell-based, Cryptococcus neoformans
Method: as §2

C. neoformans [10] = assay: ROS accumulation, DCFDA; type: cell-based, Cryptococcus neoformans
Method: (§6) All cultures were incubated for 6 h and then labeled with 20 µM DCFDA in PBS for 30 min. Labeled cultures were transferred into a microplate, and fluorescence intensity was measured using a CLARIOstar plate reader (BMG Labtech).

A. fumigatus [11] = assay: lipid peroxidation, TBARS assay (MDA); type: cell-based, Aspergillus fumigatus
Method: as §5

[12] = tested on: 38 species of clinically relevant fungi; assay: MIC summary across 38 species of clinically relevant fungi; type: cell-based; conditions: 38 fungal species; for MIC: read-out: GM MIC
Description: […]; Table S3). […]. […] […]. […] […].

C. neoformans [13] = assay: membrane depolarization, diS-C3(3); type: cell-based, Cryptococcus neoformans; conditions: diS-C3(3) emission maximum
Method: as §3

C. albicans [14] = assay: ROS accumulation, DCFDA; type: cell-based, Candida albicans
Method: as §6

Enterobacter aerogenes = assay: antibacterial MIC; type: cell-based; conditions: Klebsiella aerogenes
Description: (§7) […]; Table S3). […]. […] […].

Proteus vulgaris = assay: antibacterial MIC; type: cell-based
Description: as §7

Klebsiella pneumoniae = assay: antibacterial MIC; type: cell-based
Description: as §7

Salmonella Typhimurium = assay: antibacterial MIC; type: cell-based; conditions: Salmonella enterica
Description: as §7

Streptococcus pyogenes = assay: antibacterial MIC; type: cell-based
Description: as §7

Acinetobacter baumanii = assay: antibacterial MIC; type: cell-based; conditions: Acinetobacter baumannii
Description: as §7

Escherichia coli = assay: antibacterial MIC; type: cell-based
Description: as §7

Enterococcus faecalis = assay: antibacterial MIC; type: cell-based
Description: as §7

C. albicans infection = assay: Galleria mellonella survival assay; type: in vivo
Method: (§8) Galleria mellonella larvae were reared and prepared as described previously ([53]). Larvae (n = 12 per treatment) were each inoculated with 10^5 spores or cells of A. fumigatus, C. albicans, or C. neoformans in 10 µL of PBS. […] Treated larvae were incubated at 37°C, and mortality was evaluated every day for 10 days.

C. neoformans infection = assay: Galleria mellonella survival assay; type: in vivo
Method: as §8

A. fumigatus infection = assay: Galleria mellonella survival assay; type: in vivo
Method: as §8

A. fumigatus [15] = assay: membrane fluidity, TMA-DPH anisotropy; type: cell-based, Aspergillus fumigatus
Method: as §4

A. fumigatus [16] = assay: membrane permeabilization, nucleic acid leakage; type: cell-based, Aspergillus fumigatus
Method: as §2

[17] = tested on: 12 pathogenic bacterial species; assay: antibacterial MIC, summary of 12 pathogenic bacterial species; type: cell-based
Description: as §7

fungal biofilms = assay: biofilm XTT assay, summary across all biofilms tested; conditions: alone
Cryptococcus neoformans = assay: time-kill assay; type: cell-based; conditions: 1× MIC, C. neoformans
Method: (§9) Cultures were incubated at 37°C with shaking at 200 rpm. Aliquots were withdrawn at 12, 24, 36, and 48 h post-treatment for both species, and additionally at 60 and 72 h for C. neoformans, then back-plated onto SDA. Viable cell counts were obtained after 48 h.

Candida albicans = assay: time-kill assay; type: cell-based; conditions: 2× MIC, C. albicans
Method: as §9

TNF-α = tested on: TNF-α; design: method as in PMID 23610597; conditions: cited from earlier work

CCCCCCCCCCn1cc[n+](CC(O)(P(=O)(O)O)P(=O)(O)O)c1 [10-ZOL, Decyl-zoledronate]
membrane ergosterol content (C. neoformans [1]): significant depletion of membrane ergosterol | membrane ergosterol content (A. fumigatus [2]): significant depletion of membrane ergosterol | concentration giving significant increase in leaked nucleic acid (C. albicans [3]): ≥ 1 × MIC | membrane depolarization (C. albicans [4]): dose-dependent depolarization effect | membrane ergosterol content (C. albicans [5]): significant depletion of membrane ergosterol | concentration from which anisotropy differs significantly from no-drug control (C. albicans [6]): 0.5 × MIC | concentration from which anisotropy differs significantly from no-drug control (C. neoformans [7]): 1 × MIC | concentration at which lipid peroxidation increase became significant (C. neoformans [8]): 1 × MIC | concentration giving significant increase in leaked nucleic acid (C. neoformans [9]): ≥ 1 × MIC | concentration at which ROS (DCFDA fluorescence) increase became significant (C. neoformans [10]): 2 × MIC | concentration at which lipid peroxidation increase became significant (A. fumigatus [11]): 2 × MIC | overall MIC range [12]: 0.5 to 8 µg/mL | MIC [12]: 1.39 ± 1.6 µg/mL | membrane depolarization (C. neoformans [13]): dose-dependent depolarization effect | concentration at which ROS (DCFDA fluorescence) increase became significant (C. albicans [14]): 2 × MIC | MIC (Enterobacter aerogenes): 16 µg/mL | MIC (Proteus vulgaris): > 16 µg/mL | MIC (Klebsiella pneumoniae): 16 µg/mL | MIC (Salmonella Typhimurium): > 16 µg/mL | MIC (Streptococcus pyogenes): 16 µg/mL | MIC (Acinetobacter baumanii): > 16 µg/mL | MIC (Escherichia coli): 16 µg/mL | MIC (Enterococcus faecalis): 16 µg/mL | survival compared with […] AMB (C. albicans infection; 64 µg/mL): outperformed AMB | larval mortality vs no-drug control (C. albicans infection; single infusion of 64 µg/mL): significantly reduced mortality | survival compared with […] AMB (C. neoformans infection; 64 µg/mL): outperformed AMB | larval mortality vs no-drug control (C. neoformans infection; single infusion of 64 µg/mL): significantly reduced mortality | survival compared with […] AMB (A. fumigatus infection; 64 µg/mL): no significant difference in survival | larval mortality vs no-drug control (A. fumigatus infection; single infusion of 64 µg/mL): significantly reduced mortality | concentration from which anisotropy differs significantly from no-drug control (A. fumigatus [15]): 2 × MIC | concentration giving significant increase in leaked nucleic acid (A. fumigatus [16]): ≥ 1 × MIC | antibacterial activity [17]: limited or no antibacterial activity | SIC80 range (fungal biofilms): 8 to 128 µg/mL | time at which viable cell count is significantly decreased from starting inoculum (Cryptococcus neoformans): 24 h | time at which viable cell count is significantly decreased from starting inoculum (Candida albicans): 12 h | TNF-α release (TNF-α): stimulate the release of TNF-α

O=P(O)(O)C(O)(Cn1ccnc1)P(=O)(O)O [ZOL, zoledronate]
MIC [12]: 148 ± 176 µg/mL (≈ 544 µM) | MIC (Enterobacter aerogenes): > 256 µg/mL | MIC (Proteus vulgaris): 128 µg/mL (≈ 470 µM) | MIC (Klebsiella pneumoniae): 256 µg/mL (≈ 941 µM) | MIC (Salmonella Typhimurium): 256 µg/mL (≈ 941 µM) | MIC (Streptococcus pyogenes): 256 µg/mL (≈ 941 µM) | MIC (Acinetobacter baumanii): > 256 µg/mL | MIC (Escherichia coli): 256 µg/mL (≈ 941 µM) | MIC (Enterococcus faecalis): 256 µg/mL (≈ 941 µM)
